Measured values: EP4745138A1, “THIO-GLUTARIMIDO ISOINDOLINONE DERIVATIVE, BIFUNCTIONAL PROTEIN DEGRADER CONTAINING SAME, AND USES THEREOF” (Gluetacs Therapeutics (Shanghai) Co., Ltd., priority 2023, dated 2025)

Biological target: T1, human Cereblon WT GST-tagged protein (Homo sapiens, UniProt Q96SW2)
T1 construct: purchased CISBIO 64BDCRBNPEH
Test: CRBN-binding affinity, HTRF (CEREBLON BINDING kit)
Conditions: for inhibition at 0.5 µM: read-out: Inhibition Rate at 0.5 µM (%); for inhibition at 2 µM: read-out: Inhibition Rate at 2 µM (%)
Description: The CEREBLON BINDING kits (specification: 10,000 tests; product number: Catalog # 64BDCRBNPEH; CISBIO company) was used to determine the CRBN binding ability of the compounds to be tested through a HTRF method (homogeneous time-resolved fluorescence). The specific methods are as follows: • 1. […] Specifically, diluent #9 (1X) solution was used as the diluent, and multiple concentration gradients were set. […] Into the 96-well plate, the diluted test compounds and corresponding detection reagents were added, resulting in final test compound concentrations of 2 µM and 0.5 µM, respectively. […] Then, 2.5 µL of human Cereblon WT GST-tagged protein solution was added to each well. Finally, 5 µL of the thoroughly mixed Thalidomide-Re reagent and GST Eu antibody working solution were added to each of the aforementioned wells. […] The blank control wells were sequentially added with 2.5 µL of diluent #9 (1X) solution, 2.5 µL of PROTAC binding buffer, and 5 µL of thoroughly mixed Thalidomide-Re reagent and GST Eu antibody working solution. • 4.

T1 sequence (Q96SW2 whole entry): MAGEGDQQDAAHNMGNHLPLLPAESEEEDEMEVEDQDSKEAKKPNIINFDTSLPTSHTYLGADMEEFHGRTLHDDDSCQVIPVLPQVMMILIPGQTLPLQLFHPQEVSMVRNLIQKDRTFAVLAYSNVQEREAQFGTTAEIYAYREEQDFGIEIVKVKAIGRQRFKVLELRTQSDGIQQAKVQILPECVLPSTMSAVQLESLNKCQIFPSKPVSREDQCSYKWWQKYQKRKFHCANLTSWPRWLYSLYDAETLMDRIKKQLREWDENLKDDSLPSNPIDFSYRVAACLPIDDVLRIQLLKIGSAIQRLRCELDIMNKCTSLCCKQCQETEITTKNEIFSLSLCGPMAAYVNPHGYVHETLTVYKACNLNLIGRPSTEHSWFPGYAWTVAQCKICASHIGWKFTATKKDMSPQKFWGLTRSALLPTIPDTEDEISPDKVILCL

Row | inhibition at 0.5 µM [%] | inhibition at 2 µM [%] | SMILES
1 | 60 to 80 | 80 to 100 | CCN(c1cc(-c2ccc(N3CCN(Cc4ccc5c(c4)CN(C4CCC(=O)NC4=O)C5=S)CC3)cc2)cc(C(=O)NCc2c(C)cc(C)[nH]c2=O)c1C)C1CCOCC1 (stereo not shown) [GT-08887, N-((4,6-dimethyl-2-oxo-1,2-dihydropyridin-3-yl)methyl)-4'-(4-((2-(2,6-dioxopiperidin-3-yl)-1-thioxoisoindolin-5-yl)methyl)piperazin-1-yl)-5-(ethyl(tetrahydro-2H-pyran-4-yl)amino)-4-methyl-[1,1-biphenyl]-3-carboxamide]
2 | 60 to 80 | 60 to 80 | Cn1c2ccncc2c2ccc(-c3cnc(N4CCN(Cc5ccc6c(c5)CN(C5CCC(=O)NC5=O)C6=S)CC4)c(Cl)c3)cc21 (stereo not shown) [GT-08978, 3-(5-((4-(3-chloro-5-(5-methyl-5H-pyrido[4,3-b]indol-7-yl)pyridin-2-yl)piperazin-1-yl)methyl)-1-thioxoisoindolin-2-yl)piperidine-2,6-dione]
3 | 40 to 53 | 60 to 80 | Cc1cc(-c2ccc3c4cnccc4n(C)c3c2)cnc1N1CCN(Cc2ccc3c(c2)CN(C2CCC(=O)NC2=O)C3=S)CC1 (stereo not shown) [GT-08980, 3-(5-((4-(3-methyl-5-(5-methyl-5H-pyrido[4,3-b]indol-7-yl)pyridin-2-yl)piperazin-1-yl)methyl)-1-thioxoisoindolin-2-yl)piperidine-2,6-dione]
4 | 60 to 80 | 80 to 100 | Cn1c2ccncc2c2ccc(-c3ccc(N4CCN(Cc5ccc6c(c5)CN(C5CCC(=O)NC5=O)C6=S)CC4)nc3)cc21 (stereo not shown) [GT-08982, 3-(5-((4-(5-(5-methyl-5H-pyrido[4,3-b]indol-7-yl)pyridin-2-yl)piperazin-1-yl)methyl)-1-thioxoisoindolin-2-yl)piperidine-2,6-dione]
5 | 60 to 80 | 100 to 110 | COc1ccc2cn(C3CCN(Cc4ccc5c(c4)CN(C4CCC(=O)NC4=O)C5=S)CC3)nc2c1NC(=O)c1cccc(C(F)(F)F)c1 (stereo not shown) [GT-09413, N-(2-(1-((2-(2,6-dioxopiperidin-3-yl)-1-thioxoisoindolin-5-yl)methyl)piperidin-4-yl)-6-methoxy-2H-indazol-7-yl)-3-(trifluoromethyl)benzamide]
6 | 60 to 80 | 80 to 100 | CN(C)C(=O)c1cc2cnc(Nc3ccc(N4CCN(Cc5ccc6c(c5)C(=S)N(C5CCC(=O)NC5=O)C6)CC4)cn3)nc2n1C1CCCC1 (stereo not shown) [GT-09427, 7-cyclopentyl-2-((5-(4-((2-(2,6-dioxopiperidin-3-yl)-3-thioxoisoindolin-5-yl)methyl)piperazin-1-yl)pyridin-2-yl)amino)-N,N-dimethyl-7H-pyrrolo[2,3-d]pyrimidine-6-carboxamide]
7 | 40 to 53 | 60 to 80 | CC(=O)c1c(C)c2cnc(Nc3ccc(N4CCN(Cc5ccc6c(c5)C(=S)N(C5CCC(=O)NC5=O)C6)CC4)cn3)nc2n(C2CCCC2)c1=O (stereo not shown) [GT-09428, 3-(6-((4-(6-((6-acetyl-8-cyclopentyl-5-methyl-7-oxo-7,8-dihydropyrido[2,3-d]pyrimidin-2-yl)amino)pyridin-3-yl)piperazin-1-yl)methyl)-1-thioxoisoindolin-2-yl)piperidine-2,6-dione]
8 | 53 to 60 | 80 to 100 | O=C1CCC(N2Cc3cc(CN4CCC(NC(=O)c5n[nH]cc5NC(=O)c5c(Cl)cccc5Cl)CC4)ccc3C2=S)C(=O)N1 (stereo not shown) [GT-09434, 4-(2,6-dichlorobenzamido)-N-(1-((2-(2,6-dioxopiperidin-3-yl)-1-thioxoisoindolin-5-yl)methyl)piperidin-4-yl)-1H-pyrazole-3-carboxamide]
9 | 0 to 10 | 0 to 10 | Cc1cc(-c2nc(C(=O)Nc3cc4oc(N5CCOCC5)nc4nc3N3CC[C@@H](O)C3)co2)ccn1 [emavusertib, Emavusertib, reference compound]

Continued, molecule first:

Row | SMILES | inhibition at 0.5 µM [%] | inhibition at 2 µM [%]
10 | CCN(c1cc(-c2ccc(CN3CCN(Cc4ccc5c(c4)CN(C4CCC(=O)NC4=O)C5=S)CC3)cc2)cc(C(=O)NCc2c(C)cc(C)[nH]c2=O)c1C)C1CCOCC1 (stereo not shown) [GT-08886, N-((4,6-dimethyl-2-oxo-1,2-dihydropyridin-3-yl)methyl)-4'-((4-((2-(2,6-dioxopiperidin-3-yl)-1-thioxoisoindolin-5-yl)methyl)piperazin-1-yl)methyl)-5-(ethyl(tetrahydro-2H-pyran-4-yl)amino)-4-methyl-[1,1-biphenyl]-3-carboxamide] | 53 to 60 | 80 to 100
11 | COc1cc2nn(C3CCN(Cc4cccc5c4CN(C4CCC(=O)NC4=O)C5=S)CC3)cc2cc1NC(=O)c1cccc(C(F)(F)F)c1 (stereo not shown) [GT-09414, N-(2-(1-((2-(2,6-dioxopiperidin-3-yl)-1-thioxoisoindolin-4-yl)methyl)piperidin-4-yl)-6-methoxy-2H-indazol-5-yl)-3-(trifluoromethyl)benzamide] | 20 to 30 | 60 to 80
12 | CC1(C)CCC(c2ccc(Cl)cc2)=C(CN2CCN(c3ccc(C(=O)NS(=O)(=O)c4ccc(N[C@H](CCN5CC6CCC(C5)N6Cc5ccc6c(c5)CN(C5CCC(=O)NC5=O)C6=S)CSc5ccccc5)c(S(=O)(=O)C(F)(F)F)c4)cc3)CC2)C1 (stereo partly drawn) [GT-09416, 4-(4-((4'-chloro-4,4-dimethyl-3,4,5,6-tetrahydro-[1,1'-biphenyl]-2-yl)methyl)piperazin-1-yl)-N-((4-(((2R)-4-(8-((2-(2,6-dioxopiperidin-3-yl)-1-thioxoisoindolin-5-yl)methyl)-3,8-diazabicyclo[3.2.1]octan-3-yl)-1-(phenylthio)butan-2-yl)amino)-3-((trifluoromethyl)sulfonyl)phenyl)sulfonyl)benzamide] | 80 to 100 | 80 to 100
13 | O=C1CCC(N2Cc3cc(CN4CCN(c5ccc(-c6cc(F)c7c(c6)C(=O)N(C(C(=O)Nc6nccs6)c6ncn8c6CCC8)C7)cc5)CC4)ccc3C2=S)C(=O)N1 (stereo not shown) [GT-09423, 2-(6,7-dihydro-5H-pyrrolo[1,2-c]imidazol-1-yl)-2-(6-(4-(4-((2-(2,6-dioxopiperidin-3-yl)-1-thioxoisoindolin-5-yl)methyl)piperazin-1-yl)phenyl)-4-fluoro-1-oxoisoindolin-2-yl)-N-(thiazol-2-yl)acetamide] | 53 to 60 | 60 to 80
14 | CCc1cc2c(cc1N1CCN(Cc3ccc4c(c3)CN(C3CCC(=O)NC3=O)C4=S)CC1)C(C)(C)c1[nH]c3cc(C#N)ccc3c1C2=O (stereo not shown) [GT-09424, 8-(4-((2-(2,6-dioxopiperidin-3-yl)-1-thioxoisoindolin-5-yl)methyl)piperazin-1-yl)-9-ethyl-6,6-dimethyl-11-oxo-6,11-dihydro-5H-benzo[b]carbazole-3-carbonitrile] | 40 to 53 | 60 to 80
15 | CN(c1nccnc1CNc1nc(Nc2ccc(N3CCN(Cc4ccc5c(c4)C(=S)N(C4CCC(=O)NC4=O)C5)CC3)cc2)ncc1C(F)(F)F)S(C)(=O)=O (stereo not shown) [GT-09437, N-(3-(((2-((4-(4-((2-(2,6-dioxopiperidin-3-yl)-3-thioxoisoindolin-5-yl)methyl)piperazin-1-yl)phenyl)amino)-5-(trifluoromethyl)pyrimidin-4-yl)amino)methyl)pyrazin-2-yl)-N-methylmethanesulfonamide] | 40 to 53 | 60 to 80
16 | CN(c1cccc(CNc2nc(Nc3ccc(N4CCN(Cc5ccc6c(c5)C(=S)N(C5CCC(=O)NC5=O)C6)CC4)cc3)ncc2C(F)(F)F)c1)S(C)(=O)=O (stereo not shown) [GT-09438, N-(3-(((2-((4-(4-((2-(2,6-dioxopiperidin-3-yl)-3-thioxoisoindolin-5-yl)methyl)piperazin-1-yl)phenyl)amino)-5-(trifluoromethyl)pyrimidin-4-yl)amino)methyl)phenyl)-N-methylmethanesulfonamide] | 53 to 60 | 60 to 80
17 | Nc1ncnc2c1c(-c1ccc(Oc3ccccc3)cc1)nn2C1CCN(Cc2ccc3c(c2)C(=S)N(C2CCC(=O)NC2=O)C3)CC1 (stereo not shown) [GT-09441, 3-(6-((4-(4-amino-3-(4-phenoxyphenyl)-1H-pyrazolo[3,4-d]pyrimidin-1-yl)piperidin-1-yl)methyl)-1-thioxoisoindolin-2-yl)piperidine-2,6-dione] | 40 to 53 | 80 to 100
